{"source": "patent US11091478B2", "about": "(Fochon Pharmaceuticals, Ltd., priority 2017, dated 2021)"}
{"system": "DOHH2 cells", "assay": "Cell proliferation assay (MTS), DOHH2 cells, 120 h", "type": "cell-based", "settings": "Homo sapiens, DOHH-2, 120 h", "source_text": "Cell Proliferation Assays\nMTS testing kit was purchased from Promega. The RPMI-1640, Fetal bovine serum and Penicillin-Streptomycin were purchased from Gibco. Dimethyl sulfoxide (DMSO) was purchased from Sigma.\nTo investigate whether a compound is able to inhibit the activity of BCL-2 in cells, a mechanism-based assay using DOHH2 (DSMZ No.® ACC 47) and RS4;11 (ATCC® CRL-1873™) cell was developed. In this assay, inhibition of Bcl-2 was detected by the inhibition of DOHH2 cells proliferation. DOHH2 cells were cultured in culture flasks to 40-80% confluence in RPMI-1640 plus 10% fetal bovine serum. Cells were collected and plated onto 96-well plates at desired cell density (5000 cells/well). Plates were incubated overnight at 37° C., with 5% CO2 to adhere. Compounds were added to the plates, and the final compound concentrations were 10000, 3333, 1111, […], 124, 41, 14, 4.6 and 1.5 nM. Plates plated with DOHH2 or RS4;11 cells were placed at 37° C., with 5% CO2 for 120 h (DOHH2) or 72 h (RS4;11) respectively. 20 μl MTS/100 μl medium mixture solution were added to each well and incubate the plates for exactly 2 hours. The reaction was stopped by adding 25 μl 10% SDS per well. Measure absorbance at 490 nm and 650 nm (reference wavelength). IC50 was calculated using GraphPad Prism 5.0.\nSelect compounds prepared as described above were assayed according to the biological procedures described herein.", "units": {"IC50": "nM"}}
{"smiles": "CN=S1(=O)CCN(C[C@H]2COc3cc(S(=O)(=O)NC(=O)c4ccc(N5CCN(CC6=C(c7ccc(Cl)cc7)CC(C)(C)CC6)CC5)cc4Oc4cnc5[nH]ccc5c4)cc([N+](=O)[O-])c3N2)CC1", "note": "[Example 2-122, (S)-2-((1H-pyrrolo[2,3-b]pyridin-5-yl)oxy)-4-(4-((4′-chloro-5,5-dimethyl-3,4,5,6-tetra-hydro-[1,1′-biphenyl]-2-yl)methyl)piperazin-1-yl)-N-((3-((1-(methylimino)-1-oxido-1λ^6-thiomorpholino)methyl)-5-nitro-3,4-di-hydro-2H-benzo[b][1,4]oxazin-7-yl)sulfonyl)benzamide]", "IC50": 660}
{"smiles": "CC1(C)CCC(CN2CCN(c3ccc(C(=O)NS(=O)(=O)c4cc5c(c([N+](=O)[O-])c4)N[C@@H](CN4CCS(=O)(=NC6CC6)CC4)CO5)c(Oc4cnc5[nH]ccc5c4)c3)CC2)=C(c2ccc(Cl)cc2)C1", "note": "[Example 2-124, (S)-2-((1H-pyrrolo[2,3-b]pyridin-5-yl)oxy)-4-(4-((4′-chloro-5,5-dimethyl-3,4,5,6-tetra-hydro-[1,1′-biphenyl]-2-yl)methyl)piperazin-1-yl)-N-((3-((1-(cyclopropylimino)-1-oxi-do-1λ^6-thiomorpholino)methyl)-5-nitro-3,4-dihydro-2H-benzo[b][1,4]oxazin-7-yl)sulfonyl)benzamide]", "IC50": 649}
{"smiles": "CC1(C)CCC(CN2CCN(c3ccc(C(=O)NS(=O)(=O)c4cc5c(c([N+](=O)[O-])c4)N[C@@H](CCOC(=O)N4CCOCC4)CO5)c(Oc4cnc5[nH]ccc5c4)c3)CC2)=C(c2ccc(Cl)cc2)C1", "note": "[Example 2-135, (S)-2-(7-(N-(2-((1H-pyrrolo[2,3-b]pyridin-5-yl)oxy)-4-(4-((4′-chloro-5,5-dimethyl-3,4,5,6-tetrahydro-[1,1′-biphenyl]-2-yl)methyl)piperazin-1-yl)benzoyl)sulfamoyl)-5-nitro-3,4-dihydro-2H-benzo[b][1,4]oxazin-3-yl) ethyl morpholine-4-carboxylate]", "IC50": 186}
{"smiles": "CC1(C)CCC(CN2CCN(c3ccc(C(=O)NS(=O)(=O)c4cc5c(c([N+](=O)[O-])c4)N[C@H](CNS(C)(=O)=O)CO5)c(Oc4cnc5[nH]ccc5c4)c3)CC2)=C(c2ccc(Cl)cc2)C1", "note": "[Example 2-136, (R)-2-((1H-pyrrolo[2,3-b]pyridin-5-yl)oxy)-4-(4-((4′-chloro-5,5-dimethyl-3.4.5.6-tetra-hydro-[1,1′-biphenyl]-2-yl)methyl)piperazin-1-yl)-N-((3-(methylsulfonamidomethyl)-5-nitro-3,4-dihydro-2H-benzo[b][1,4]oxa-zin-7-yl)sulfonyl)benzamide]", "IC50": 378}
{"smiles": "CCS(=O)(=O)NC[C@@H]1COc2cc(S(=O)(=O)NC(=O)c3ccc(N4CCN(CC5=C(c6ccc(Cl)cc6)CC(C)(C)CC5)CC4)cc3Oc3cnc4[nH]ccc4c3)cc([N+](=O)[O-])c2N1", "note": "[Example 2-137, (R)-2-((1H-pyrrolo[2,3-b]pyridin-5-yl)oxy)-4-(4-((4′-chloro-5,5-dimethyl-3,4,5,6-tetra-hydro-[1,1′-biphenyl]-2-yl)methyl)piperazin-1-yl)-N-((3-(ethylsulfonamidomethyl)-5-nitro-3,4-dihydro-2H-benzo[b][1,4]oxazin-7-yl)sulfonyl)benzamide]", "IC50": 139}
{"smiles": "CC1(C)CCC(CN2CCN(c3ccc(C(=O)NS(=O)(=O)c4cc5c(c([N+](=O)[O-])c4)N[C@H](CN4CCOC4=O)CO5)c(Oc4cnc5[nH]ccc5c4)c3)CC2)=C(c2ccc(Cl)cc2)C1", "note": "[Example 2-146, (R)-2-((1H-pyrrolo[2,3-b]pyridin-5-yl)oxy)-4-(4-((4′-chloro-5,5-dimethyl-3,4,5,6-tetra-hydro-[1,1′-biphenyl]-2-yl)methyl)piperazin-1-yl)-N-((5-nitro-3-((2-oxooxazolidin-3-yl)methyl)-3,4-dihydro-2H-benzo[b][1,4]oxazin-7-yl)sulfonyl)benzamide]", "IC50": 160}
